According to publication PMC11277489, “Novel Piperazine Derivatives of Vindoline as Anticancer Agents” (International Journal of Molecular Sciences, 2024):

Columns and labels:
LOX IMVI = assay: NCI60 one-dose screen (10 μM), Melanoma; type: cell-based, human; conditions: Homo sapiens; 10 μM; LOX IMVI, Melanoma; read-out: Growth percent rate
SF-539 = assay: NCI60 one-dose screen (10 μM), CNS Cancer; type: cell-based, human; conditions: Homo sapiens; 10 μM; SF-539, CNS Cancer; read-out: Growth percent rate
HS 578T = assay: NCI60 one-dose screen (10 μM), Breast Cancer; type: cell-based; conditions: Homo sapiens; 10 μM; HS 578T, Breast Cancer; read-out: Growth percent rate
HCC-2998 = assay: NCI60 one-dose screen (10 μM), Colon Cancer; type: cell-based; conditions: Homo sapiens; 10 μM; HCC-2998, Colon Cancer; read-out: Growth percent rate
COLO 205 = assay: NCI60 one-dose screen (10 μM), Colon Cancer; type: cell-based, human; conditions: Homo sapiens; 10 μM; COLO 205, Colon Cancer; read-out: Growth percent rate
MCF7 = assay: NCI60 one-dose screen (10 μM), Breast Cancer; type: cell-based; conditions: Homo sapiens; 10 μM; MCF7, Breast Cancer; read-out: Growth percent rate
SN12C = assay: NCI60 one-dose screen (10 μM), Renal Cancer; type: cell-based; conditions: Homo sapiens, 10 μM, Renal Cancer, read-out: Growth percent rate
RXF 393 = assay: NCI60 one-dose screen (10 μM), Renal Cancer; type: cell-based, human; conditions: Homo sapiens; 10 μM; RXF 393, Renal Cancer; read-out: Growth percent rate
RPMI-8226 = assay: NCI60 one-dose screen (10 μM), Leukemia; type: cell-based; conditions: Homo sapiens; 10 μM; RPMI-8226, Leukemia; read-out: Growth percent rate
HL-60(TB) = assay: NCI60 one-dose screen (10 μM), Leukemia; type: cell-based; conditions: Homo sapiens; 10 μM; HL-60(TB), Leukemia; read-out: Growth percent rate
SK-MEL-28 = assay: NCI60 one-dose screen (10 μM), Melanoma; type: cell-based; conditions: Homo sapiens; 10 μM; SK-MEL-28, Melanoma; read-out: Growth percent rate
MDA-MB-435 = assay: NCI60 one-dose screen (10 μM), Melanoma; type: cell-based; conditions: Homo sapiens; 10 μM; MDA-MB-435, Melanoma; read-out: Growth percent rate
CAKI-1 = assay: NCI60 one-dose screen (10 μM), Renal Cancer; type: cell-based; conditions: Homo sapiens; 10 μM; CAKI-1, Renal Cancer; read-out: Growth percent rate
IGROV1 = assay: NCI60 one-dose screen (10 μM), Ovarian Cancer; type: cell-based; conditions: Homo sapiens, IGROV-1; 10 μM; IGROV1, Ovarian Cancer; read-out: Growth percent rate
HOP-62 = assay: NCI60 one-dose screen (10 μM), Non-small Cell Lung Cancer; type: cell-based; conditions: Homo sapiens; 10 μM; HOP-62, Non-small Cell Lung Cancer; read-out: Growth percent rate
A498 = assay: NCI60 one-dose screen (10 μM), Renal Cancer; type: cell-based; conditions: Homo sapiens; 10 μM; A498, Renal Cancer; read-out: Growth percent rate
SW-620 = assay: NCI60 one-dose screen (10 μM), Colon Cancer; type: cell-based; conditions: Homo sapiens; 10 μM; SW-620, Colon Cancer; read-out: Growth percent rate
786–0 = assay: NCI60 one-dose screen (10 μM), Renal Cancer; type: cell-based; conditions: Homo sapiens; 10 μM; 786-0, Renal Cancer; read-out: Growth percent rate
[1] = test system: 60 human tumor cell lines (NCI60); assay: NCI60 one-dose screen (10 μM), whole panel; type: cell-based; conditions: 10 μM; mean over 60 human cancer cell lines; read-out: Growth percent rate, Mean
NCI-H460 = assay: NCI60 one-dose screen (10 μM), Non-small Cell Lung Cancer; type: cell-based; conditions: Homo sapiens; 10 μM; NCI-H460, Non-small Cell Lung Cancer; read-out: Growth percent rate
SF-295 = assay: NCI60 one-dose screen (10 μM), CNS Cancer; type: cell-based; conditions: Homo sapiens; 10 μM; SF-295, CNS Cancer; read-out: Growth percent rate
M14 = assay: NCI60 one-dose screen (10 μM), Melanoma; type: cell-based; conditions: Homo sapiens; 10 μM; M14, Melanoma; read-out: Growth percent rate
SK-MEL-5 = assay: NCI60 one-dose screen (10 μM), Melanoma; type: cell-based, human; conditions: Homo sapiens; 10 μM; SK-MEL-5, Melanoma; read-out: Growth percent rate
MALME-3M = assay: NCI60 one-dose screen (10 μM), Melanoma; type: cell-based; conditions: Homo sapiens; 10 μM; MALME-3M, Melanoma; read-out: Growth percent rate
OVCAR-8 = assay: NCI60 one-dose screen (10 μM), Ovarian Cancer; type: cell-based; conditions: Homo sapiens; 10 μM; OVCAR-8, Ovarian Cancer; read-out: Growth percent rate
HT29 = assay: NCI60 one-dose screen (10 μM), Colon Cancer; type: cell-based; conditions: Homo sapiens, HT-29; 10 μM; HT29, Colon Cancer; read-out: Growth percent rate
OVCAR-4 = assay: NCI60 one-dose screen (10 μM), Ovarian Cancer; type: cell-based; conditions: Homo sapiens; 10 μM; OVCAR-4, Ovarian Cancer; read-out: Growth percent rate
A549/ATCC = assay: NCI60 one-dose screen (10 μM), Non-small Cell Lung Cancer; type: cell-based; conditions: Homo sapiens; 10 μM; A549/ATCC, Non-small Cell Lung Cancer; read-out: Growth percent rate
EKVX = assay: as above; type: cell-based; conditions: Homo sapiens, 10 μM, Non-small Cell Lung Cancer, read-out: Growth percent rate
NCI-H522 = assay: as above; type: cell-based; conditions: Homo sapiens; 10 μM; NCI-H522, Non-small Cell Lung Cancer; read-out: Growth percent rate
SNB-19 = assay: NCI60 one-dose screen (10 μM), CNS Cancer; type: cell-based; conditions: Homo sapiens; 10 μM; SNB-19, CNS Cancer; read-out: Growth percent rate
SF-268 = assay: NCI60 one-dose screen (10 μM), CNS Cancer; type: cell-based; conditions: Homo sapiens; 10 μM; SF-268, CNS Cancer; read-out: Growth percent rate
ACHN = assay: NCI60 one-dose screen (10 μM), Renal Cancer; type: cell-based; conditions: Homo sapiens, 10 μM, Renal Cancer, read-out: Growth percent rate
TK-10 = assay: NCI60 one-dose screen (10 μM), Renal Cancer; type: cell-based; conditions: Homo sapiens; 10 μM; TK-10, Renal Cancer; read-out: Growth percent rate
NCI-H322M = assay: NCI60 one-dose screen (10 μM), Non-small Cell Lung Cancer; type: cell-based; conditions: Homo sapiens, 10 μM, Non-small Cell Lung Cancer, read-out: Growth percent rate
K-562 = assay: NCI60 one-dose screen (10 μM), Leukemia; type: cell-based; conditions: Homo sapiens, K562; 10 μM; K-562, Leukemia; read-out: Growth percent rate
HCT-15 = assay: NCI60 one-dose screen (10 μM), Colon Cancer; type: cell-based; conditions: Homo sapiens; 10 μM; HCT-15, Colon Cancer; read-out: Growth percent rate
MOLT-4 = assay: NCI60 one-dose screen (10 μM), Leukemia; type: cell-based, human; conditions: Homo sapiens; 10 μM; MOLT-4, Leukemia; read-out: Growth percent rate
U251 = assay: NCI60 one-dose screen (10 μM), CNS Cancer; type: cell-based; conditions: Homo sapiens, U-251; 10 μM; U251, CNS Cancer; read-out: Growth percent rate
UACC-257 = assay: NCI60 one-dose screen (10 μM), Melanoma; type: cell-based; conditions: Homo sapiens; 10 μM; UACC-257, Melanoma; read-out: Growth percent rate
NCI-H23 = assay: NCI60 one-dose screen (10 μM), Non-small Cell Lung Cancer; type: cell-based; conditions: Homo sapiens; 10 μM; NCI-H23, Non-small Cell Lung Cancer; read-out: Growth percent rate
HCT-116 = assay: NCI60 one-dose screen (10 μM), Colon Cancer; type: cell-based; conditions: Homo sapiens; 10 μM; HCT-116, Colon Cancer; read-out: Growth percent rate

Compound `CC[C@]12C=CCN3CC[C@@]4(c5ccc(OC)cc5N(C)[C@H]4[C@@](O)(C(=O)OC)[C@@H]1OC(=O)CCCN1CCN(Cc4ccc(F)cc4)CC1)[C@@H]32` [Compound 24] has an activity at 10 µM (LOX IMVI) of 5.04%, an activity at 10 µM (SF-539) of 14.7% and an activity at 10 µM (HS 578T) of 56.4%. It also gave an activity at 10 µM (HCC-2998) of -62.4%, an activity at 10 µM (COLO 205) of -59.6% and an activity at 10 µM (MCF7) of 6.31%. For the same compound, the activity at 10 µM (SN12C) was 43.9%, the activity at 10 µM (RXF 393) was -8.13% and the activity at 10 µM (RPMI-8226) was 20.1%. For the same compound, the activity at 10 µM (HL-60(TB)) was 7.68%, the activity at 10 µM (SK-MEL-28) was -45.3% and the activity at 10 µM (MDA-MB-435) was 38.7%. It also gave an activity at 10 µM (CAKI-1) of 5.13%, an activity at 10 µM (IGROV1) of 25.1% and an activity at 10 µM (HOP-62) of 70.1%. The activity at 10 µM (A498) was 58.3%, the activity at 10 µM (SW-620) was 64.3% and the activity at 10 µM (786–0) was 31.4%. The activity at 10 µM [1] was 20.4%, the activity at 10 µM (NCI-H460) was 30.6% and the activity at 10 µM (SF-295) was 70.2%. For the same compound, the activity at 10 µM (M14) was -77.9%, the activity at 10 µM (SK-MEL-5) was -98.3% and the activity at 10 µM (MALME-3M) was -97.2%. The activity at 10 µM (OVCAR-8) was 66%, the activity at 10 µM (HT29) was 1.44% and the activity at 10 µM (OVCAR-4) was 33%. It also gave an activity at 10 µM (A549/ATCC) of 51.2%, an activity at 10 µM (EKVX) of 40.3% and an activity at 10 µM (NCI-H522) of 27.3%. It also gave an activity at 10 µM (SNB-19) of 49.1%, an activity at 10 µM (SF-268) of 42.5% and an activity at 10 µM (ACHN) of 33.7%. It also gave an activity at 10 µM (TK-10) of 42.6%, an activity at 10 µM (NCI-H322M) of 71.7% and an activity at 10 µM (K-562) of 0.4%. It also gave an activity at 10 µM (HCT-15) of 15.7%, an activity at 10 µM (MOLT-4) of 6.28% and an activity at 10 µM (U251) of 40.3%. It also gave an activity at 10 µM (UACC-257) of -72.7%, an activity at 10 µM (NCI-H23) of 74.4% and an activity at 10 µM (HCT-116) of 24.1%.
